Data published in ChEMBL document CHEMBL5325505, “Discovery of chiral 1,4-diarylazetidin-2-one-based hydroxamic acid derivatives as novel tubulin polymerization inhibitors with histone deacetylase inhibitory activity” (Bioorg Med Chem, 2023).
≈ marks a conversion by molar mass, not a printed value. Calls of active or inactive are those of the source. The calls are words filed in the database; no cut-off is given here.

Columns and labels:
BE(2)-C [1] = experiment: Antiproliferative activity against human BE2C cells incubated for 48 hrs by MTT assay; type: functional, cell-based
A549 = experiment: Antiproliferative activity against human A549 cells incubated for 48 hrs by MTT assay; type: functional, cell-based; conditions: A549, 48 h
U-87 MG = experiment: Antiproliferative activity against human U-87 MG cells incubated for 48 hrs by MTT assay; type: functional, cell-based, U-87MG ATCC
HCT-116 = experiment: Antiproliferative activity against human HCT-116 cells incubated for 48 hrs by MTT assay; type: functional, cell-based; conditions: HCT-116, 48 h
Histone deacetylase 1 = Histone deacetylase 1 (Homo sapiens, UniProt Q13547); experiment: Inhibition of HDAC1 (unknown origin)
Histone deacetylase 8 = biological target: T1, Histone deacetylase 8 (Homo sapiens, UniProt Q9BY41); experiment: Inhibition of HDAC8 (unknown origin)
T1 sequence (Q9BY41 whole entry): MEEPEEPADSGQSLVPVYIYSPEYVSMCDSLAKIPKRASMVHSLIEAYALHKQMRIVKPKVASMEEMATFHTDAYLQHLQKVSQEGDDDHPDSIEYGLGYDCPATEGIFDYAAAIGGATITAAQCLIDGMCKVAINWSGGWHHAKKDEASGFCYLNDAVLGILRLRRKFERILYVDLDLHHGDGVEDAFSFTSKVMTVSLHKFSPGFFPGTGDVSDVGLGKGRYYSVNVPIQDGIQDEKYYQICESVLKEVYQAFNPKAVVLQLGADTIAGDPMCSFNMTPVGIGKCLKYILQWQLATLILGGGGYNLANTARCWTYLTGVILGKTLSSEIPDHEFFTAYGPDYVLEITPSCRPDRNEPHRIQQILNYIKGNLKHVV

BE(2)-C [2] = experiment: Upregulation of acetylated SMC3 expression in human BE2C cells by Western blot analysis; type: functional, cell-based; conditions: dose 25-100 nM
BE(2)-C [3] = experiment: Upregulation of acetylated tubulin expression in human BE2C cells by Western blot analysis; type: functional, cell-based; conditions: dose 25-100 nM
[4] = Aqueous solubility of compound at 1 mg incubated for 10 mins; type: physicochemical
Tubulin (Homo sapiens) [5] = biological target: T2, Tubulin (Homo sapiens) (UniProt P68371+Q9H4B7+P0DPH7+P68366+Q13509+Q71U36+P04350+Q3ZCM7+P07437+P68363+Q9BQE3+Q6PEY2+Q13885+Q9BVA1+Q9BUF5); experiment: Inhibition of tubulin polymerization in human BE2C cells assessed as disruption of fibrous microtubule network at 25 to 100 nM incubated for 24 hrs by immunofluorescence based microscopy; type: cell-based; conditions: dose 25-100 nM
Tubulin (Homo sapiens) [6] = biological target: T2, Tubulin (Homo sapiens); experiment: Inhibition of tubulin polymerization in human BE2C cells assessed as decrease in tubulin density at 25 to 100 nM incubated for 24 hrs by immunofluorescence based microscopy; type: cell-based; conditions: dose 25-100 nM
BE(2)-C [7] = experiment: Inhibition of colony formation in human BE2C cells incubated for 36 hrs by gentian violet staining based assay; type: functional, cell-based; conditions: dose 25-100 nM
BE(2)-C [8] = experiment: Upregulation of Bax expression in human BE2C cells at 25 to 100 nM by Western blot analysis; type: functional, cell-based; conditions: dose 25-100 nM
BE(2)-C [9] = experiment: Induction of cell cycle arrest in human BE2C cells assessed as accumulation at G2/M phase incubated for 24 hrs by RNase/PI staining based flow cytometry; type: functional
BE(2)-C [10] = experiment: Induction of cell cycle arrest in human BE2C cells assessed as increase in cyclin B1 expression by Western blot analysis; type: functional, cell-based; conditions: dose 12.5-50 nM
BE(2)-C [11] = experiment: Induction of cell cycle arrest in human BE2C cells assessed as increase in phosphorylated H3 expression by Western blot analysis; type: functional, cell-based; conditions: dose 12.5-50 nM
BE(2)-C [12] = experiment: Induction of apoptosis in human BE2C cells assessed as viable cells at 25 nM incubated for 48 hrs by annexin V-FITC/PI staining based flow cytometry (reference value: 82.16 %); type: functional; conditions: read-out: Activity
BE(2)-C [13] = experiment: Induction of apoptosis in human BE2C cells assessed as late apoptotic cells at 25 nM incubated for 48 hrs by annexin V-FITC/PI staining based flow cytometry (reference value: 9.99 %); type: functional
BE(2)-C [14] = experiment: Induction of apoptosis in human BE2C cells assessed as necrotic cells at 25 nM incubated for 48 hrs by annexin V-FITC/PI staining based flow cytometry (reference value: 3.57 %); type: functional
BE(2)-C [15] = experiment: Induction of apoptosis in human BE2C cells assessed as viable cells at 50 nM incubated for 48 hrs by annexin V-FITC/PI staining based flow cytometry (reference value: 82.16 %); type: functional; conditions: read-out: Activity
BE(2)-C [16] = experiment: Induction of apoptosis in human BE2C cells assessed as early apoptotic cells at 50 nM incubated for 48 hrs by annexin V-FITC/PI staining based flow cytometry (reference value: 4.28 %); type: functional
BE(2)-C [17] = experiment: Induction of apoptosis in human BE2C cells assessed as late apoptotic cells at 50 nM incubated for 48 hrs by annexin V-FITC/PI staining based flow cytometry (reference value: 9.99 %); type: functional
BE(2)-C [18] = experiment: Induction of apoptosis in human BE2C cells assessed as necrotic cells at 50 nM incubated for 48 hrs by annexin V-FITC/PI staining based flow cytometry (reference value: 3.57 %); type: functional
BE(2)-C [19] = experiment: Induction of apoptosis in human BE2C cells assessed as early apoptotic cells at 100 nM incubated for 48 hrs by annexin V-FITC/PI staining based flow cytometry (reference value: 4.28 %); type: functional
BE(2)-C [20] = experiment: Induction of apoptosis in human BE2C cells assessed as late apoptotic cells at 100 nM incubated for 48 hrs by annexin V-FITC/PI staining based flow cytometry (reference value: 9.99 %); type: functional
BE(2)-C [21] = experiment: Induction of apoptosis in human BE2C cells assessed as necrotic cells at 100 nM incubated for 48 hrs by annexin V-FITC/PI staining based flow cytometry (reference value: 3.57 %); type: functional
[22] = Metabolic stability in human liver microsomes assessed as compound remaining incubated for 5 mins; type: ADME, Microsome; conditions: read-out: Stability
[23] = Metabolic stability in human liver microsomes assessed as compound remaining incubated for 10 mins; type: ADME, Microsome; conditions: read-out: Stability
[24] = Metabolic stability in human liver microsomes assessed as compound remaining incubated for 30 mins; type: ADME, Microsome; conditions: liver microsomes, read-out: Stability
[25] = Metabolic stability in human liver microsomes assessed as compound remaining incubated for 60 mins; type: ADME, Microsome; conditions: liver microsomes, read-out: Stability
[26] = Metabolic stability in human liver microsomes assessed as intrinsic clearance; type: ADME, Microsome; conditions: read-out: CLH
[27] = Metabolic stability in human liver microsomes assessed as half life; type: ADME, Microsome
[28] = Toxicity in nude mouse xenografted with human BE2C cells assessed as body weight loss at 25 mg/kg, ip treated for every 3 days; type: organism-based; conditions: in vivo, 72 h, time 3 day
[29] = Toxicity in nude mouse xenografted with human BE2C cells assessed as adverse effect at 25 mg/kg, ip treated for every 3 days; type: organism-based; conditions: in vivo, 72 h, time 3 day

Histone deacetylase 1, sequence (Q13547 whole entry): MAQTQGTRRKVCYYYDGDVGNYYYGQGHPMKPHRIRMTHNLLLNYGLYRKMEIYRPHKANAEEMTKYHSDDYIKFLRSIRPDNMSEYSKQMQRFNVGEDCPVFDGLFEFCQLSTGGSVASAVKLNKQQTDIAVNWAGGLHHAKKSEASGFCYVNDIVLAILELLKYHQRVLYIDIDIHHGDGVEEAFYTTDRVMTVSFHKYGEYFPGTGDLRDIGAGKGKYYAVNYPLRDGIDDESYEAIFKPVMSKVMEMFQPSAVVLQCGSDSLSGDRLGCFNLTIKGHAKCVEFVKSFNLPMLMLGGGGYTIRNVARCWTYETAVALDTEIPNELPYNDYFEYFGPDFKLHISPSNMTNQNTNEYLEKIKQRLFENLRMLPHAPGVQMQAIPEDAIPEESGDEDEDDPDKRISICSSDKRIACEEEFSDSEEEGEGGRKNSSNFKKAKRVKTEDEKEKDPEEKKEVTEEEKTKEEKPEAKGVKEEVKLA

For `COc1ccc([C@H]2[C@H](COC(=O)c3ccc(C(=O)NO)cc3)C(=O)N2c2cc(OC)c(OC)c(OC)c2)cc1O`, the IC50 (BE(2)-C [1]) was 17 nM, the IC50 (A549) was 53 nM and the IC50 (U-87 MG) was 56 nM. The IC50 (HCT-116) was 51 nM, the IC50 (Histone deacetylase 1) was 155 nM and the IC50 (Histone deacetylase 8) was 177 nM. For the same compound, the Activity (BE(2)-C [2]) was “Dose-Dependent Effect”, the Activity (BE(2)-C [3]) was “Dose-Dependent Effect” and the solubility at 10 min [4] was 102 µg/mL (≈ 185 µM). For the same compound, the inhibition (Tubulin (Homo sapiens) [5]) was “Active”, the inhibition (Tubulin (Homo sapiens) [6]) was “Active” and the inhibition (BE(2)-C [7]) was “Active”. The Activity (BE(2)-C [8]) was “Active”, the Activity (BE(2)-C [9]) was “Dose-Dependent Effect” and the Activity (BE(2)-C [10]) was “Dose-Dependent Effect”. The Activity (BE(2)-C [11]) was “Dose-Dependent Effect”, the viability at 0.025 µM (BE(2)-C [12]) was 62.1% and the Activity (BE(2)-C [13]) was 19.01%. The Activity (BE(2)-C [14]) was 7.06%, the viability at 0.05 µM (BE(2)-C [15]) was 50.2% and the Activity (BE(2)-C [16]) was 12.23%. It also gave an Activity (BE(2)-C [17]) of 29.09%, an Activity (BE(2)-C [18]) of 8.53% and an Activity (BE(2)-C [19]) of 17.27%. The Activity (BE(2)-C [20]) was 44%, the Activity (BE(2)-C [21]) was 9.54% and the remaining at 5 min [22] was 89.4%. It also gave a remaining at 10 min [23] of 80%, a remaining at 0.5 h [24] of 58.2% and a remaining at 1 h [25] of 55.3%. For the same compound, the CLint scaled [26] was 18.1 mL/min/kg, the t1/2 [27] was 1.15 h and the Activity [28] was “Non-Toxic”. The Activity [29] was “Non-Toxic”.
